Source: patent US10350228B2, “Treatment of sickle cell disease and inflammatory conditions” (Seattle Genetics, Inc., priority 2012, dated 2019)
Where two headings read alike, the source gives them in different places.

Key:
[1] = tested on: antibody core fucosylation; experiment: Inhibition of antibody core fucosylation by fucose analogs; format: cell-based
Excerpt: Methods of determining whether a fucose analog is capable of having an effect on antibody core fucosylation is provided in WO 2012/019165.

NF-κB phospho-p65 = experiment: Western blot of NF-κB phospho-p65 in liver nuclear extracts of sickle cell mice; format: in vivo, NY1DD sickle cell mice; settings: heme-treated mice
Description: NY1DD sickle cell mice were given plain water or 20 or 100 mM 2-fluorofucose in their drinking water ad libitum for 7 days. The treatment and control group had four mice per treatment group. On day 7, the mice were sacrificed with CO2. An EDTA blood sample was collected from the heart and the liver was removed and frozen in liquid nitrogen. Total white blood cell counts and differentials were performed by manual counting using a hemocytometer and Wright-stained blood smears, respectively. Nuclear extracts were prepared from nuclei isolated from liver homogenates. Western blots of the nuclear extracts were immunostained with antibodies to NF-κB phospho-p65 a marker of NF-κB activation.

[2] = Table 1, 50 μM analog, read-out: Inhibition at 50 μM
[3] = Table 2, 50 μM analog, read-out: Inhibition at 50 μM

Question: Which results are given for C#C[C@H](OC(C)=O)[C@H]1OC(OC)[C@@H](OC(C)=O)[C@@H]1OC(C)=O (stereo partly shown) [1-methyl-2,3,4-triacetyl alkynyl fucose]?
Answer: inhibition at 50 µM ([1]; Table 1, 50 μM analog): 68%; Inhibition at 1 mM ([1]; Table 1, 1 mM analog): >80%

Question: Which inhibition at 50 µM [1, 2] does the source give for CC(=O)OC(C#N)[C@H]1OC(OC(C)=O)[C@@H](OC(C)=O)[C@@H]1OC(C)=O (stereo partly shown) [5-cyanoarabinofuranose tetraacetate] here?
Answer: The inhibition at 50 µM was 5 to 10%.

Question: For C#CC1OC(OC(=O)C(C)(C)C)C(O)C(OC(=O)C(C)(C)C)C1O (stereo not shown) [Alkynyl fucose di(trimethylacetate), 5-ethynylarabinose 1,3-(trimethylacetate)], which “inhibition at 50 µM” value ([1]; Table 1, 50 μM analog) is on record?
Answer: Its value is greater than 80%.

Question: What does the source list for C#CC(OC(C)=O)[C@@H](OC(C)=O)[C@@H](OC(C)=O)[C@@H](C=O)OC(C)=O (stereo partly shown) [Alkynyl fucose peracetate, 5-ethynylarabinose tetraacetate]?
Answer: inhibition at 50 µM [1, 2]: > 80%; inhibition at 1000 µM ([1]; Table 1, 1 mM analog): > 80%

Question: For CC(=O)OC1O[C@@H](C)[C@@H](OC(C)=O)[C@@H](OC(C)=O)C1(F)F (stereo partly shown) [2-deoxy-2,2-difluorofucopyranose triacetate], which inhibition at 50 µM [1, 3] is on record?
Answer: The inhibition at 50 µM was 0%.

Question: And the inhibition at 1000 µM ([1]; Table 2, 1 mM analog)?
Answer: Its inhibition at 1000 µM is 64%.

Question: For hemin [heme, reference compound], which “Nuclear NF-κB phospho-p65 in liver” value (NF-κB phospho-p65) is on record?
Answer: Its value is “markedly decreased”.

Question: C#CC(OC(=O)CCCCC)[C@@H](OC(=O)CCCCC)[C@@H](OC(=O)CCCCC)[C@@H](C=O)OC(=O)CCCCC (stereo partly shown) [Alkynyl fucose tetra-n-hexanoate, 5-ethynylarabinose tetrahexanoate] was tested. Which inhibition at 50 µM [1, 2] did it give?
Answer: The inhibition at 50 µM was greater than 80%.

Question: What about the inhibition at 1000 µM ([1]; Table 1, 1 mM analog) of the same compound?
Answer: The inhibition at 1000 µM was greater than 80%.

Question: What does the source list for C#C[C@@H]1OC(OC(=O)CC)[C@@H](OC(=O)CC)[C@H](OC(=O)CC)[C@@H]1OC(=O)CC (stereo partly shown) [Alkynyl fucose tetrapropanonate, 5-ethynylarabinose tetrapropropanoate]?
Answer: inhibition at 50 µM ([1]; Table 1, 50 μM analog): >80%; Inhibition at 1 mM ([1]; Table 1, 1 mM analog): >80%

Question: Which “inhibition at 50 µM” value ([1]; Table 2, 50 μM analog) does the source give for CC(=O)OC1O[C@@H](C)[C@@H](OC(C)=O)[C@@H](OC(C)=O)C1(F)F (stereo partly drawn) [2-deoxy-2,2-difluorofucopyranose triacetate (beta)] here?
Answer: Its value is 0%.

Question: What about the “Inhibition at 1 mM” value ([1]; Table 2, 1 mM analog) of the same compound?
Answer: The value was 75%.

Question: Which inhibition at 50 µM [1, 2] does the source give for CC(=O)OC1OC(C#N)[C@@H](OC(C)=O)[C@@H](OC(C)=O)[C@@H]1OC(C)=O (stereo partly shown) [5-cyanoarabinopyranose tetraacetate] here?
Answer: The inhibition at 50 µM was 20%.

Question: For CC(=O)OC1O[C@@H]([C@]2(C)CO2)[C@@H](OC(C)=O)[C@@H](OC(C)=O)[C@@H]1OC(C)=O (stereo partly drawn) [5-methyloxiran-arabinose tetraacetate, (3S,4R,5S,6R)-6-((S)-2-methyloxiran-2-yl)-tetrahydro-2H-pyran-2,3,4,5-tetrayl tetraacetate], which inhibition at 50 µM [1, 2] is on record?
Answer: The inhibition at 50 µM was roughly 0%.

Question: And the inhibition at 1000 µM ([1]; Table 1, 1 mM analog)?
Answer: Its inhibition at 1000 µM is 35 to 40%.

Question: With C#CC(O)[C@@H](O)[C@@H](O)[C@H](O)C=O (stereo partly shown) [Alkynyl fucose, 5-ethynylarabinose] as the compound, how does the inhibition at 50 µM [1, 2] read?
Answer: The inhibition at 50 µM was greater than 80%.

Question: Which inhibition at 50 µM [1, 2] does the source give for CC(=O)O[C@H]([C@H](OC(C)=O)[C@H](CC#N)OC(C)=O)[C@@H](C=O)OC(C)=O [6-cyano fucose tetraacetate, 6-cyanofucose tetraacetate] here?
Answer: Its inhibition at 50 µM is 30%.

Question: And the inhibition at 1000 µM ([1]; Table 1, 1 mM analog)?
Answer: Its inhibition at 1000 µM is greater than 80%.

Question: How did the inhibition at 50 µM [1, 3] turn out when CC(=O)O[C@H]([C@H](OC(C)=O)[C@@H](OC(C)=O)C(F)F)[C@@H](C=O)OC(C)=O [6,6-difluorofucose tetraacetate] was run?
Answer: The inhibition at 50 µM was greater than 80%.

Question: And the inhibition at 1000 µM ([1]; Table 2, 1 mM analog)?
Answer: The inhibition at 1000 µM was greater than 80%.

Question: Which results are given for C=CC1OC(OC(C)=O)C(OC(C)=O)C(OC(C)=O)C1OC(C)=O (stereo not shown) [5-vinyl fucose tetraacetate, 5-ethylenylarabinose tetraacetate]?
Answer: inhibition at 50 µM ([1]; Table 1, 50 μM analog): ~0%; Inhibition at 1 mM ([1]; Table 1, 1 mM analog): ~4%

Question: Which results are given for 2-deoxy-2-fluorofucose diacetate?
Answer: inhibition at 50 µM ([1]; Table 2, 50 μM analog): >80%; Inhibition at 1 mM ([1]; Table 2, 1 mM analog): >80%

Question: How did the “inhibition at 50 µM” value ([1]; Table 1, 50 μM analog) turn out when C#CC1OC(OC(=O)c2cccnc2)C(OC(=O)c2cccnc2)C(OC(=O)c2cccnc2)C1OC(=O)c1cccnc1 (stereo not shown) [Alkynyl fucose pernicotinate] was run?
Answer: Its value is greater than 80%.

Question: What about the “Inhibition at 1 mM” value ([1]; Table 1, 1 mM analog) of the same compound?
Answer: Its value is greater than 80%.

Question: Which results are given for CC(=O)OC1C(C)OC(F)C(F)C1OC(C)=O (stereo not shown) [1,2-difluoro-1,2-didexoy fucose peracetate]?
Answer: inhibition at 50 µM ([1]; Table 2, 50 μM analog): >80%; Inhibition at 1 mM ([1]; Table 2, 1 mM analog): >80%

Question: Which results are given for CC(=O)OC1CC(OC(C)=O)C(OC(C)=O)C(C)O1 (stereo not shown) [6-methyl-tetrahydro-2H-pyran-2,4,5-triyl triacetate]?
Answer: inhibition at 50 µM [1, 3]: 0%; inhibition at 1000 µM ([1]; Table 2, 1 mM analog): 36%

Question: For CC(=O)O[C@H]([C@H](OC(C)=O)[C@H](CI)OC(C)=O)[C@@H](C=O)OC(C)=O [6-iodo-fucose tetraacetate, 6-iodofucose tetraacetate], which inhibition at 50 µM [1, 2] is on record?
Answer: The inhibition at 50 µM was 3%.

Question: And the inhibition at 1000 µM ([1]; Table 1, 1 mM analog)?
Answer: Its inhibition at 1000 µM is 30%.

Question: Which results are given for C#C[C@@H]1OC(OC(=O)C(C)C)[C@@H](OC(=O)C(C)C)[C@H](OC(=O)C(C)C)[C@@H]1OC(=O)C(C)C (stereo partly shown) [Alkynyl fucose perisobutanoate]?
Answer: inhibition at 50 µM ([1]; Table 1, 50 μM analog): >80%; Inhibition at 1 mM ([1]; Table 1, 1 mM analog): >80%

Question: What does the source list for CC#CC(OC(C)=O)[C@@H](OC(C)=O)[C@@H](OC(C)=O)[C@@H](C=O)OC(C)=O (stereo partly shown) [5-propynyl fucose tetraacetate, 5-propynylarabinose tetraacetate]?
Answer: inhibition at 50 µM [1, 2]: 50%; inhibition at 1000 µM ([1]; Table 1, 1 mM analog): > 80%

Question: For 5-Benzyloxy fucose peracetate, which “inhibition at 50 µM” value ([1]; Table 2, 50 μM analog) is on record?
Answer: Its value is 0%.

Question: What about the “Inhibition at 1 mM” value ([1]; Table 2, 1 mM analog) of the same compound?
Answer: Its value is 75%.

Question: Which results are given for 2-deoxy-2-fluorofucose peracetate?
Answer: inhibition at 50 µM ([1]; Table 2, 50 μM analog): >80%; Inhibition at 1 mM ([1]; Table 2, 1 mM analog): >80%

Question: Which inhibition at 50 µM [1, 2] does the source give for CC(=O)O[C@H]([C@H](OC(C)=O)[C@H](CCl)OC(C)=O)[C@@H](C=O)OC(C)=O [6-chloro-fucose tetraacetate, 6-chlorofucose tetraacetate] here?
Answer: Its inhibition at 50 µM is 20%.

Question: What about the inhibition at 1000 µM ([1]; Table 1, 1 mM analog) of the same compound?
Answer: The inhibition at 1000 µM was 20 to 30%.

Question: Which inhibition at 50 µM [1, 2] does the source give for CC(=O)O[C@H]([C@H](OC(C)=O)[C@H](CBr)OC(C)=O)[C@@H](C=O)OC(C)=O [6-bromo-fucose tetraacetate, 6-bromofucose tetraacetate] here?
Answer: The inhibition at 50 µM was 50%.

Question: And the inhibition at 1000 µM ([1]; Table 1, 1 mM analog)?
Answer: The inhibition at 1000 µM was 80%.

Question: Which “inhibition at 50 µM” value ([1]; Table 1, 50 μM analog) does the source give for C#CC1OC(OC(=O)C(C)(C)C)C(OC(=O)C(C)(C)C)C(OC(=O)C(C)(C)C)C1O (stereo not shown) [Alkynyl fucose 1,2,3-(trimethylacetate), 5-ethynylarabinose 1,2,3-(trimethylacetate)] here?
Answer: The value was roughly 0%.

Question: Which “inhibition at 50 µM” value ([1]; Table 1, 50 μM analog) does the source give for C#C[C@H]1OC(OC(=O)c2ccncc2)[C@@H](OC(=O)c2ccncc2)[C@H](OC(=O)c2ccncc2)[C@@H]1OC(=O)c1ccncc1 (stereo partly shown) [Alkynyl fucose perisonicotinate] here?
Answer: The value was greater than 80%.

Question: And the “Inhibition at 1 mM” value ([1]; Table 1, 1 mM analog)?
Answer: The value was greater than 80%.

Question: How did the inhibition at 50 µM [1, 2] turn out when C#CC[C@@H]1OC(OC(C)=O)[C@@H](OC(C)=O)[C@H](OC(C)=O)[C@@H]1OC(C)=O (stereo partly drawn) [propargyl fucose tetraacetate, (3S,4R,5R,6S)-6-(prop-2-ynyl)-tetrahydro-2H-pyran-2,3,4,5-tetrayl tetraacetate] was run?
Answer: The inhibition at 50 µM was roughly 10%.

Question: And the inhibition at 1000 µM ([1]; Table 1, 1 mM analog)?
Answer: Its inhibition at 1000 µM is 10 to 20%.
